Experimental data from US6433151B1, “Erythromycin derivatives, a process for their preparation and their use as medicaments” (Aventis Pharma S.A., priority 1998, dated 2002).

What was measured:
Assay in all cases: Method of dilutions in a liquid medium (MIC)
Assay type in all cases: cell-based
E. faecalis 02D2DU15c = settings: ery R, reading after 24 hours
Method: (§1) Method of Dilutions in a Liquid Medium
(§2) A series of tubes in which the same amount of sterile nutrient medium is distributed is prepared. Increasing amounts of the product to be studied are distributed in each tube, and each tube is then seeded with a strain of bacteria.
(§3) After incubation for twenty-four hours in an oven at 37° C., the inhibition of growth is evaluated by transillumination, from which the minimum inhibitory concentrations (MIC), expressed in micrograms/cm^3, can be determined.
(§4) The following results were obtained with the product from example 1 and from example 2 (reading taken after 24 hours).

E. faecalis 02D2UC1 = settings: E. faecalis 02D2UC1, ery S; reading after 24 hours
Method: as §1, §2, §3, §4

E. faecium 02D3HT1 = settings: E. faecium 02D3HT1, Ery S; reading after 24 hours
Method: as §1, §2, §3, §4

S. agalactiae 02B1HT1 = settings: S. agalactiae 02B1HT1, ery S; reading after 24 hours
Method: as §1, §2, §3, §4

S. agalactiae 02B1SJ1c = settings: ery R, reading after 24 hours
Method: as §1, §2, §3, §4

S. aureus 011GO25I = settings: oxa S ery R, reading after 24 hours
Method: as §1, §2, §3, §4

S. aureus 011UC4 = settings: reading after 24 hours
Method: as §1, §2, §3, §4

S. epidermidis 012GO11I = settings: oxa S ery R, reading after 24 hours
Method: as §1, §2, §3, §4

S. mitis 02MitCB1 = settings: S. mitis 02MitCB1, Ery S; reading after 24 hours
Method: as §1, §2, §3, §4

S. mitis 02MitGR16I = settings: ery R, reading after 24 hours
Method: as §1, §2, §3, §4

S. pneumoniae 030CR18c = settings: ery R, reading after 24 hours
Method: as §1, §2, §3, §4

S. pneumoniae 030GR20 = settings: S. pneumoniae 030GR20, ery S; reading after 24 hours
Method: as §1, §2, §3, §4

S. pneumoniae 030PW23c = settings: ery R, reading after 24 hours
Method: as §1, §2, §3, §4

S. pneumoniae 030R01I = settings: ery R, reading after 24 hours
Method: as §1, §2, §3, §4

S. pneumoniae 030SJ1c = settings: ery R, reading after 24 hours
Method: as §1, §2, §3, §4

S. pneumoniae 030SJ51 = settings: S. pneumoniae 030SJ51, ery R; reading after 24 hours
Method: as §1, §2, §3, §4

S. pneumoniae 032UC1 = settings: S. pneumoniae 032UC1, ery S; reading after 24 hours
Method: as §1, §2, §3, §4

S. pyogenes 02A1UC1 = settings: S. pyogenes 02A1UC1, ery S; reading after 24 hours
Method: as §1, §2, §3, §4

S. sanguis 02SgGr10I = settings: ery R, reading after 24 hours
Method: as §1, §2, §3, §4

[1] = system: Streptococcus gr. G 02GOGR5; settings: Streptococcus gr. G 02GOGR5, Ery S; reading after 24 hours
Method: as §1, §2, §3, §4

[2] = S. aureus 011UC4 + serum 50%, ery S

SMILES | minimum inhibitory concentrations (MIC) (E. faecalis 02D2DU15c) [micrograms/cm^3] | minimum inhibitory concentrations (MIC) (E. faecalis 02D2UC1) [micrograms/cm^3] | minimum inhibitory concentrations (MIC) (E. faecium 02D3HT1) [micrograms/cm^3] | minimum inhibitory concentrations (MIC) (S. agalactiae 02B1HT1) | minimum inhibitory concentrations (MIC) (S. agalactiae 02B1SJ1c) [micrograms/cm^3] | minimum inhibitory concentrations (MIC) (S. aureus 011GO25I) [micrograms/cm^3] | minimum inhibitory concentrations (MIC) (S. aureus 011UC4; [2]) [micrograms/cm^3] | minimum inhibitory concentrations (MIC) (S. aureus 011UC4; S. aureus 011UC4, ery S) [micrograms/cm^3] | minimum inhibitory concentrations (MIC) (S. epidermidis 012GO11I) [micrograms/cm^3] | minimum inhibitory concentrations (MIC) (S. mitis 02MitCB1) | minimum inhibitory concentrations (MIC) (S. mitis 02MitGR16I) [micrograms/cm^3] | minimum inhibitory concentrations (MIC) (S. pneumoniae 030CR18c) [micrograms/cm^3] | minimum inhibitory concentrations (MIC) (S. pneumoniae 030GR20) | minimum inhibitory concentrations (MIC) (S. pneumoniae 030PW23c) [micrograms/cm^3] | minimum inhibitory concentrations (MIC) (S. pneumoniae 030R01I) [micrograms/cm^3] | minimum inhibitory concentrations (MIC) (S. pneumoniae 030SJ1c) [micrograms/cm^3] | minimum inhibitory concentrations (MIC) (S. pneumoniae 030SJ51) [micrograms/cm^3] | minimum inhibitory concentrations (MIC) (S. pneumoniae 032UC1) | minimum inhibitory concentrations (MIC) (S. pyogenes 02A1UC1) [micrograms/cm^3] | minimum inhibitory concentrations (MIC) (S. sanguis 02SgGr10I) [micrograms/cm^3] | also measured
CCC1OC(=O)C(C)C(=O)C(C)C(OC2OC(C)CC(NC)C2O)C(C)(OC)CC(C)C(=O)C(C)C2N(CCCCn3cnc(-c4cccnc4)c3)C(=O)OC12C [Ex. 1, N-Demethyl-11,12-dideoxy-3-de[(2,6-dideoxy-3-C-methyl-3-O-methyl-alpha-L-ribohexopyranosyl)-oxy]-6-O-methyl-3-oxo-12,11-[oxycarbonyl[[4-[4-(3-pyridinyl)-1H-imidazol-1-yl]butyl]imino]]-erythromycin] | >40 | 0.080 | 0.080 | <=0.02 micrograms/cm^3 | 0.600 | 5.000 | 0.040 | 0.300 | 0.150 | 0.080 micrograms/cm^3 | 0.080 | 10.000 | <=0.02 micrograms/cm^3 | 0.150 | 0.150 | 0.080 | 0.080 | <=0.02 micrograms/cm^3 | 0.800 | 0.150 | minimum inhibitory concentrations (MIC) [1]: 0.080 micrograms/cm^3
CCC1OC(=O)C(C)C(=O)C(C)C(OC2OC(C)CC(NC)C2O)C(C)(OC)CC(C)C(=O)C(C)C2N(NCCCc3ccnc4ccccc34)C(=O)OC12C [Ex. 2, N-Demethyl-11,12-dideoxy-3-de((2,6-dideoxy-3-C-methyl-3-O-methyl-alpha-L-ribohexopyranosyl)oxy)-6-O-methyl-3-oxo-12,11-(oxycarbonyl(2-(3-(4-quinolinyl)-propyl)-hydrazono))-erythromycin] | >20 | 0.040 | 0.040 | 0.020 micrograms/cm^3 | 0.150 | 0.600 | 0.150 | 0.080 | 0.300 | <=0.01 micrograms/cm^3 | 0.080 | 2.500 | <=0.01 micrograms/cm^3 | 0.080 | 0.300 | 0.150 | 0.080 | <=0.01 micrograms/cm^3 | 0.040 | 0.150 | minimum inhibitory concentrations (MIC) [1]: 0.040 micrograms/cm^3
